From US6653304B2, “Cannabinoid receptor modulators, their processes of preparation, and use of cannabinoid receptor modulators for treating respiratory and non-respiratory diseases” (Bristol-Myers Squibb Co., priority 2000, dated 2003) come the findings set out here.

This assay deals with human lung epithelial cell lines H292 and A549. Kind of assay: Activation of lung epithelial cells. The class given is cell-based. Here is the method:
(2) Activation of Lung Epithelial Cells
The ability of the cannabinoids to inhibit mucin, chemokine/cytokine production from lung epithelial cells is evaluated with human lung epithelial cell lines H292 and A549. Epithelial cells are cultured overnight in 48 well microtiter plates in complete RMPI […] (200 μl/well) at a density of 2×10^5 cells/ml. The media is removed and replaced with fresh media. Test compounds in 50 μl isotonic buffer are added and incubated for 1 hour at 37° C. Cell activation is triggered by the addition of a stimulatory agent comprising one of EGF, smoke conditioned media, TNF-α or IL-1β. In this assay, the IC50 for Win-55212-2<20 mcM. After a desired period of time (e.g., 24 h) the cell supernatants are removed and assayed for mucin cytokine and chemokines by ELISA. The cannabinoid agonists inhibit mucin and IL-8 production from lung epithelial cells.

pIC50: −log10 of the molar value. Where only a bound is given, the exact number is not on record here.

A word on the pIC50: it is −log10 of the IC50, conventionally taken in molar units. For `Cc1c(C(=O)c2cccc3ccccc23)c2cccc3c2n1[C@H](CN1CCOCC1)CO3` [Win-55212-2], the “activity in the lung epithelial cell assay” value is listed as “demonstrated activity”. The pIC50 (stimulated with EGF, smoke conditioned media, TNF-α or IL-1β, mucin, cytokine and chemokines by ELISA) was greater than 4.70.
